Reference: patent US20240254107A1, “RNA-TARGETING LIGANDS, COMPOSITIONS THEREOF, AND METHODS OF MAKING AND USING THE SAME” (THE UNIVERSITY OF NORTH CAROLINA AT CHAPEL HILL, priority 2021, published 2024)
Like-named read-outs stand apart in the source and are kept apart here. Each block holds one molecule with its values, some of them ahead of it.

Key:
TPP riboswitch RNA = test: Isothermal titration calorimetry (ITC) binding to TPP riboswitch RNA; conditions: for binding cooperativity with 2: ITC with and without pre-bound 2
[1] = system: TPP riboswitch region of the screening construct; test: SHAPE / SHAPE-MaP fragment screening and replicate hit validation; assay type: binding; conditions: RNA pre-bound to primary fragment, fragment 1 mM, 5NIA reagent
Protocol: Fragments were obtained as a fragment screening library from Maybridge, which was a subset of their Ro3 diversity fragment library and contained 1500 compounds dissolved in DMSO at 50 mM. Most of these compounds adhere to the “rule of three” for fragment compounds; having a molecular mass <300 Da, containing ≤3 hydrogen bond donors and ≤3 hydrogen bond acceptors, and ClogP ≤3.0. All compounds used for ITC, with the exception of those listed in Example 5, were purchased from Millipore-Sigma and used without further purification. Screening experiments were carried out in 25 μL in 96-well plate format on a Tecan Freedom Evo-150 liquid handler equipped with an 8-channel air displacement pipetting arm, disposable filter tips, robotic manipulator arm, and an EchoTherm RIC20 remote controlled heating/cooling dry bath (Torrey Pines Scientific). Liquid handler programs used for screening are available upon request. […]
Once screening of test fragments is complete, statistical tests are carried out to identify differences in modification rates of a given nucleotide. […] That is, if m1 modifications of a tested nucleotide were counted among n1 reads in sample 1 and m2 modifications were counted among n2 reads in sample 2, the tested null hypothesis predicts that among all the counted modifications (m1+m2), the proportion of modifications in sample 1 will be p1=n1/(n1+n2). […]

[2] = Table 4, fragment 5 analogs, pendant groups, ITC, read-out: Kd
[3] = Table 4, fragment 5 analogs, pendant groups, ITC
[4] = Table 8, linked analogs, read-out: Kd

Kd (TPP riboswitch RNA; Table 3, fragment 5 analogs, pyridine core modifications, ITC, read-out: Kd): 265 µM
Structure (SMILES): c1cc2[nH]cnc2cn1 [Compound 6]

Kd (TPP riboswitch RNA; Table 1, SHAPE-detected fragment hits, ITC, read-out: Kd): 0.028 ± 0.002 µM
Structure (SMILES): Cc1ncc(C[n+]2csc(CCOP(=O)([O-])OP(=O)(O)O)c2C)c(N)n1 [Compound 9, thiamine pyrophosphate, reference compound]

Kd (TPP riboswitch RNA; Table 2B, fragment 2 analogs, pendant groups, ITC, read-out: Kd): 220 µM
Structure (SMILES): Cc1cccc2nccnc12 [Compound 23]

Structure (SMILES): O=C(O)c1csc2ccc(Cl)cc12 [Compound 29]
binding detected by SHAPE, second-round screen [1]: induced a very robust change in the SHAPE reactivity signal

Structure (SMILES): c1cc(N2CCNCC2)ccn1 [Compound 31]
binding cooperativity with 2 (TPP riboswitch RNA): clear, but modest, binding cooperativity

Structure (SMILES): Cc1cnccc1N1CCNCC1 [Compound 32]
binding cooperativity with 2 (TPP riboswitch RNA): clear, but modest, binding cooperativity

Kd (TPP riboswitch RNA; [2]): 440 µM
Structure (SMILES): COC(=O)c1ccc(Br)nc1 [Compound S5]

Kd (TPP riboswitch RNA; [2]): 390 µM
Structure (SMILES): COC(=O)c1ccc([N+](=O)[O-])nc1 [Compound S6]

Kd (TPP riboswitch RNA; [2]): 1800 µM
Structure (SMILES): CCOc1ccc(C(=O)OC)cn1 [Compound S7]

Kd (TPP riboswitch RNA; [2]): 1100 µM
Structure (SMILES): COC(=O)c1ccc(C)nc1 [Compound S8]

Kd (TPP riboswitch RNA; [3]): no binding
Structure (SMILES): COC(=O)c1ccc(C(F)(F)F)nc1 [Compound S9]

Kd (TPP riboswitch RNA; [3]): no binding
Structure (SMILES): COC(=O)c1ccc(Oc2ccccc2)nc1 [Compound S10]

Kd (TPP riboswitch RNA; [2]): 820 µM
Structure (SMILES): COC(=O)c1cnc(Cl)c(Cl)c1 [Compound S11]

Kd (TPP riboswitch RNA; [2]): 93 µM
fold higher affinity for the TPP riboswitch than fragment 5 (TPP riboswitch RNA; relative to fragment 5): approximately threefold
Structure (SMILES): COC(=O)c1cnc(Cl)cc1Cl [Compound S12]

Kd (TPP riboswitch RNA; [2]): 600 µM
Structure (SMILES): CCOC(=O)c1ccc(Cl)nc1 [Compound S13]

Kd (TPP riboswitch RNA; [2]): 1300 µM
Structure (SMILES): OCc1ccc(Cl)nc1 [Compound S14]

Kd (TPP riboswitch RNA; [2]): 1800 µM
Structure (SMILES): NC(=O)c1ccc(Cl)nc1 [Compound S15]

Kd (TPP riboswitch RNA; [2]): 1300 µM
Structure (SMILES): NS(=O)(=O)c1ccc(Cl)nc1 [Compound S16]

Kd (TPP riboswitch RNA; [3]): no binding
Structure (SMILES): CCS(=O)(=O)c1ccc(Cl)nc1 [Compound S17]

Kd (TPP riboswitch RNA; [3]): no binding
Structure (SMILES): CN(C)C(=O)c1ccc(Cl)nc1 [Compound S18]

Kd (TPP riboswitch RNA; [4]): 477 µM
Structure (SMILES): O=C(CCCC(=O)Nc1ccc2nccnc2c1)NO [KW-5-1, N^1-hydroxy-N^5-(quinoxalin-6-yl)glutaramide]

Kd (TPP riboswitch RNA; [4]): 653 µM
Structure (SMILES): O=C(O)CCC(=O)Nc1ccc2nccnc2c1 [KW-16-1]

Kd (TPP riboswitch RNA; [4]): 10.5 µM
Structure (SMILES): O=C(CNc1cnccc1N1CCNCC1)Nc1ccc2nccnc2c1 [KW-29-1, 2-((4-(piperazin-1-yl)pyridin-3-yl)amino)-N-(quinoxalin-6-yl)acetamide]

Kd (TPP riboswitch RNA; [4]): 58.1 µM
Structure (SMILES): O=C(CNc1ccc2nccnc2c1)NO [KW-31-1, N-hydroxy-2-(quinoxalin-6-ylamino)acetamide]

Kd (TPP riboswitch RNA; [4]): 69.1 µM
Structure (SMILES): CN(C)CCN(C=O)Cc1ccc2nccnc2c1 [KW-79-1, N-(2-(dimethylamino)ethyl)-N-(quinoxalin-6-ylmethyl)formamide]
